Assay [1] concerns subjects affirmatively diagnosed as having NASH. The experiment in a line: Example 1: EPA-E group vs placebo control group in NASH subjects, one year. Format: in vivo, human. How it is done: Subjects affirmatively diagnosed as having NASH are divided into two groups (each comprising 15 cases), namely the EPA-E group and the control group, then the groups are caused to take EPADEL S900 (containing 900 mg of EPA-E) and a placebo, respectively, twice a day. Doses are modified as appropriate to the subjects' conditions. Following the method described in American Journal of Gastroenterology 2001, Vol. 96, pp. 2711-2717 with respect to the criteria for diagnosing subjects, monitoring, histological testing, statistic analysis, and so forth, blood chemistry tests on ALT, AST, and the like are performed and the plasma fatty acid composition is determined over a dosage period of one year, and liver biopsy is conducted at the end of dosage, so as to make histological evaluations.
Of the EPA-E group, 15 cases are sorted into two groups, one (“effective” group) comprising the cases in which the score in accordance with the method of Brunt et al. is changed after the administration of the drug from that before the administration by 1 or 2, and the other (“ineffective” group) comprising the cases in which the score after the administration is not changed from that before the administration, and analysis is conducted on the change in the plasma fatty acid composition as determined over the dosage period of one year. The OA/SA ratio before the administration is not different between the effective group and the ineffective group. […] The reduction rate of the OA/SA ratio in two months is calculated by the equation: reduction rate (%)=[(OA/SA ratio before start of administration)−(OA/SA ratio two months after start of administration)]/OA/SA ratio before start of administration×100.

Assay [2] has as its system patients with NASH having liver fibrosis. The experiment in a line: Example 3: EPA-E with dietary restriction and exercise therapy in NASH patients having liver fibrosis, one year. As to conditions: one year after start of treatment. Format: in vivo, human. Here is the method: Patients with NASH having liver fibrosis, that is to say, subjects suffering from fibrosis classified to stage 1 or 2 according to the fibrosis staging of Brunt et al. are collected (15 cases). Dietary restriction and exercise therapy are conducted so that the blood OA/SA ratio as monthly measured may be reduced in value from that measured previously, while 900 mg of EPA-E is administered twice a day, so as to do follow-up for one year. To the subjects in whom no change is recognized in OA/SA ratio, 900 mg of EPA-E is administered thrice a day.
The subjects in whom the reduction ratio of the OA/SA ratio in one month after the start of the administration is not lower than 5% are included in group A, while the subjects in whom the reduction ratio of the OA/SA ratio in one month after the start of the administration is lower than […] are included in group B. The reduction rate of the OA/SA ratio in one month is calculated by the equation: reduction rate (%)=[(OA/SA ratio before start of administration)−(OA/SA ratio one month after start of administration)]/OA/SA ratio before start of administration×100.

The test system of assay [3] is patients with NASH. The experiment in a line: Example 4: EPA-E in NASH patients grouped by adiponectin gene SNP276 genotype, one year. In kind it is in vivo, human. To be noted: for NAS scores (Kleiner et al.): 900 mg twice a day, one year. Here is the method:
There are three genotypes for the adiponectin gene SNP276, the T/T, G/T and G/G genotypes, and humans with the G/G genotype are said to have a lower blood adiponectin level than those with the T/T genotype.
To a group of patients with NASH having the adiponectin gene SNP276 which is of the G/G genotype and a group of patients with NASH having the adiponectin gene SNP276 which is of the genotype other than the G/G genotype (each group comprising 15 cases), 900 mg of EPA-E is administered twice a day for one year. After the lapse of one year, therapeutic effects are evaluated by the NAS scoring of Kleiner et al. In both of the group of patients with NASH having the G/G genotype and the group of patients with NASH having the genotype other than the G/G genotype, NAS scores are improved owing to the administration of the drug for one year.

For assay [4], the system named is NASH. As to conditions: 2700 mg/day for 12 months; Non-Patent Literature 3; cited from earlier work.
The mark [5] stands for this setting: EPADEL S900 (900 mg EPA-E) twice a day, one year, vs before treatment and vs control group.
Setting [6] is: effective group (Brunt score changed by 1 or 2).
[7] abbreviates: ineffective group (Brunt score not changed).

`CC/C=C\C/C=C\C/C=C\C/C=C\C/C=C\CCCC(=O)OCC` [EPA-E, ethyl icosapentate ester]: the “mean value of ALT” value in assay [1] (setting [5]) was “reduced from those before treatment more markedly in comparison with the control group”. For the same molecule, the “mean value of AST” value in assay [1] (setting [5]) is “reduced from those before treatment more markedly in comparison with the control group”. Also, the TIMP-1 entry in assay [1] (setting [6]) is recorded as “gradually reduced in value”; in assay [1] (setting [7]), “hardly changed in value”. Also, the figures for the hyaluronic acid result in assay [1] (setting [6]) and in assay [1] (setting [7]) were “gradually reduced in value” and “hardly changed in value”, respectively. The “type IV collagen” value in assay [1] (setting [6]) is “gradually reduced in value”; in assay [1] (setting [7]), “hardly changed in value”. Moreover, the “reduction rate of the OA/SA ratio in two months” value in assay [1] (effective group compared with ineffective group) is recorded as “high in the effective group as compared with the ineffective group”. Besides, the “plasma OA/SA ratio” value in assay [1] (for two months after start of administration, effective and ineffective groups) was “tends to be reduced in both groups”; in assay [1] (from the lapse of two months on, effective and ineffective groups), “tends more or less to be reduced”; in assay [1] (two months after start of administration, effective group vs ineffective group), “lower in value than in the ineffective group”. In addition, the “average fibrosis, fibrosis staging of Brunt et al.” value in assay [1] (liver biopsy at the end of one-year dosage) was “from stage 2 to stage 1”. In addition, the “fibrosis, staging of Brunt et al., by liver biopsy” value in assay [2] (group A (OA/SA reduction in one month not lower than 5%)) is listed as “ameliorated from stage 2 to stage 1 or non-fibrotic stage, or again, from stage 1 to non-fibrotic stage”. Moreover, the amelioration of fibrosis result in assay [2] (group B (OA/SA reduction in one month lower than 1%)) is reported as “slight”. Besides, the “degree of improvement in NAS score” value in assay [3] (G/G genotype group vs other genotype group) is “higher in the group of patients with NASH having the G/G genotype”. In addition, the “NAS scores (Kleiner et al.)” value in assay [3] (G/G genotype group) and in assay [3] (genotype other than G/G) was “improved” in each case. In addition, in assay [4], the “NASH (AST, ALT, inflammatory cytokines, oxidative stress markers, liver biopsy)” value is listed as “amelioration of NASH”.

The values above are taken from US20110092592A1, “DIAGNOSIS AND TREATMENT OF HEPATIC DISORDER” (priority 2008, published 2011).
